{
  "source": "patent US20110207726A1",
  "about": "“Inhibitors of Human Cathepsin L, Cathepsin B, and Cathepsin S” (The Trustees of the University of Pennsylvania, priority 2008, published 2011)",
  "key": {"[1]": {"target": "T1, human cathepsin L (Homo sapiens, UniProt P07711)", "T1 sequence (P07711 114-288 limits assumed)": "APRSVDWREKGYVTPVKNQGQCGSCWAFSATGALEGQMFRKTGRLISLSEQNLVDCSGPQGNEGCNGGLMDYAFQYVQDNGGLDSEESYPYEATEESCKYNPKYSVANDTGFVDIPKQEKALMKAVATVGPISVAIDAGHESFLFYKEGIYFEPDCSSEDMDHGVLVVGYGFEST", "T1 sequence (P07711 292-333 limits assumed)": "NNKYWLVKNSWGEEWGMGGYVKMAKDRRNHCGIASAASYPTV", "assay": "Nonlinear regression of transient kinetics (data fitting)"}, "[2]": {"target": "T2, human cathepsin V (Homo sapiens, UniProt O60911)", "T2 construct": "purchased Calbiochem 219467", "T2 sequence (O60911 114-334)": "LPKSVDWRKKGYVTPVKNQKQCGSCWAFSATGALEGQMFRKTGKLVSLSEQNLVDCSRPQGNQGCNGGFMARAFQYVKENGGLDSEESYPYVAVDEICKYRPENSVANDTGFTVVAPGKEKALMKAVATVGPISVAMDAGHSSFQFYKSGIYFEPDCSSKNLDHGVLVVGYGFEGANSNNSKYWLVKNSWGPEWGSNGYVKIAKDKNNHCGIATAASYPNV", "assay": "Selectivity assay, cathepsin V", "format": "biochemical", "method": "(§1) Compound No. 1 was assayed for inhibition against papain and cathepsins B, G, K, S, and V. Papain from Carica papaya (Calbiochem 5125, 11 ng/mL), human cathepsin K (Calbiochem 342001, 35 ng/mL), human spleen cathepsin S (Calbiochem 219344, 40 ng/mL), and human cathepsin V (Calbiochem 219467, 39 ng/ml) were assayed using Z-Phe-Arg-AMC substrate at 20 μM, 20 μM, 15 μM, and 1 μM, respectively. Human liver cathepsin B (Calbiochem 219362, 65 ng/mL) was assayed using 15 μM Z-Arg-Arg-AMC substrate (Bachem I-1135). Human neutrophil cathepsin G (Calbiochem 219373, 4.2 μg/mL) was assayed using 15 μM Suc-Ala-Ala-Pro-Phe-AMC substrate (Sigma S9761). All reactions were performed in 20 mM sodium acetate buffer containing 5 mM cysteine and 1 mM EDTA, pH 5.5. Reaction progress was monitored using the Envision microplate reader. IC50 values were measured in triplicate."}, "[3]": {"tested_on": "Plasmodium falciparum", "assay": "Malaria assay, in vitro propagation", "format": "cell-based", "conditions": "read-out: IC50 against Plasmodium falciparum", "method": "Eight two-fold serial dilutions of Compound No. 1 in RPMI 1640 media (Invitrogen 1 1 875) containing L-Glutamine, 50 mg/L hypoxanthine, 6 g/L HEPES, 0.5% Albumax 11 bovine serum (Invitrogen 11021), 0.225% sodium bicarbonate, and 1 pgIrnL gentamicin were performed in Corning 3704 microplates. […] In addition, 30 μL normal red blood cells and 30 μL infected red blood cells were added to two control columns containing 10 μL media. The plates were incubated at 37° C. in a 92% humidity chamber with 5% CO2, 5% O2, and 90% N2 for 48 hours to allow for two cycles of red blood cell rupture and invasion to take place. Forty μL BrightGlo™ (Promega E2610) were added to each well and centrifuged. After 5 minutes, luminescence was measured using the Envision microplate reader."}, "[4]": {"target": "T3, Human neutrophil cathepsin G (Homo sapiens, UniProt P08311)", "T3 construct": "Human neutrophil cathepsin G (Calbiochem 219373, 4.2 μg/mL); purchased Calbiochem 219373; host or cells: human neutrophils", "T3 sequence (P08311 21-243 limits assumed)": "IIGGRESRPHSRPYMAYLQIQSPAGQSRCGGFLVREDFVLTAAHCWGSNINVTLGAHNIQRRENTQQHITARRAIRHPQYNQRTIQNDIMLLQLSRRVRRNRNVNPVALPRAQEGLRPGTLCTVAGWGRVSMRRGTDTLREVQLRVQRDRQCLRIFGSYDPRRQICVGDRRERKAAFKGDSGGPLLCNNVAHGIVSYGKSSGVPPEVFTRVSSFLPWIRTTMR", "assay": "Selectivity assay, cathepsin G", "format": "biochemical", "conditions": "for IC50: Cathepsin G, no preincubation", "method": "as §1"}, "[5]": {"target": "T4, human cathepsin K (Homo sapiens, UniProt P43235)", "T4 construct": "purchased Calbiochem 342001", "T4 sequence (P43235 115-329)": "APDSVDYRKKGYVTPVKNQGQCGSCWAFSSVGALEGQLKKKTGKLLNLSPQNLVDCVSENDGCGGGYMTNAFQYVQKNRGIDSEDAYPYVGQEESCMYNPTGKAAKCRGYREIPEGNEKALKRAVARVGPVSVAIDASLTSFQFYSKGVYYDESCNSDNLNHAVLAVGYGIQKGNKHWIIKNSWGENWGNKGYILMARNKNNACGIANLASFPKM", "assay": "Selectivity assay, cathepsin K", "format": "biochemical", "method": "as §1"}, "[6]": {"target": "T1, human cathepsin L", "assay": "Reversibility, preincubation/dilution assay", "format": "biochemical", "design": "8.7 ng/mL human liver cathepsin L (Calbiochem 219402); purchased Calbiochem 219402; host or cells: human liver", "method": "This mixture was then diluted 100-fold in a Corning 3650 96-well plate with assay buffer containing 1 μM Z-Phe-Arg-AMC to a final volume of 200 μL. A rapidly reversible inhibitor should dissociate from the enzyme to restore approximately >90% of enzymatic activity. Fluorescence intensities of the 200 μL reaction wells were monitored continuously for AMC hydrolysis on the Envision plate reader.\nThe mechanism of inhibition, to determine whether the compound acted as a rapidly reversible, slowly reversible, or irreversible inhibitor, was evaluated using a preincubation/dilution assay (Copeland, 2005, Evaluation of Enzyme Inhibitors in Drug Discovery: A Guide for Medicinal Chemists and Pharmacologists, J. Wiley, Hoboken, N.J.). […] After 8820 s, the rate of product formation for the 4 hour preincubated reaction was 4.7 times greater than the initial rate of product formation, showing that the inhibitor was being released from the enzyme-inhibitor complex and enzymatic activity was indeed recovering."}},
  "note": "Where two headings read alike, the source gives them in different places.",
  "data": [
    {"smiles": "CCc1ccccc1NC(=O)CSC(=O)NNC(=O)[C@H](Cc1c[nH]c2ccccc12)NC(=O)OC(C)(C)C", "note": "[Compound No. 1]", "values": [
      {"measurement": "Ki", "setting": "[1]", "value": 0.00089, "unit": "µM"},
      {"measurement": "koff", "setting": "[1]", "value": "2.2e-05", "unit": "s⁻¹"},
      {"measurement": "kon", "setting": "[1]", "value": 24000, "unit": "M⁻¹ s⁻¹"},
      {"measurement": "IC50", "setting": "[2]", "value": "1.01 ± 0.142", "unit": "µM"},
      {"measurement": "Selectivity Index @ 10 min", "setting": "[2]; Cathepsin V vs cathepsin L, 10 min", "value": 7},
      {"measurement": "Selectivity Index @ 30 min", "setting": "[2]; Cathepsin V vs cathepsin L, 30 min", "value": 9},
      {"measurement": "Selectivity Index @ 60 min", "setting": "[2]; Cathepsin V vs cathepsin L, 60 min", "value": 11},
      {"measurement": "Selectivity Index @ 90 min", "setting": "[2]; Cathepsin V vs cathepsin L, 90 min", "value": 11},
      {"measurement": "Selectivity Index", "setting": "[2]; Cathepsin V vs cathepsin L, over 10-90 min", "value": "7-11"},
      {"measurement": "IC50", "setting": "[2]; Cathepsin V, no preincubation, 30 min, read-out: IC50 @ 30 min", "value": "0.688 ± 0.039", "unit": "µM"},
      {"measurement": "IC50", "setting": "[2]; Cathepsin V, no preincubation, 60 min, read-out: IC50 @ 60 min", "value": "0.618 ± 0.035", "unit": "µM"},
      {"measurement": "IC50", "setting": "[2]; Cathepsin V, no preincubation, 90 min, read-out: IC50 @ 90 min", "value": "0.576 ± 0.024", "unit": "µM"},
      {"measurement": "IC50", "setting": "[3]", "value": "15.4 ± 0.6", "unit": "µM"},
      {"measurement": "inhibitory activity against cathepsin G (in words)", "setting": "[4]", "value": "no inhibitory activity"},
      {"measurement": "IC50", "setting": "[4]; human neutrophil, 10 min", "value": "> 50", "unit": "µM"},
      {"measurement": "IC50", "setting": "[4]; 30 min, read-out: IC50 @ 30 min", "value": "> 50", "unit": "µM"},
      {"measurement": "IC50", "setting": "[4]; 60 min, read-out: IC50 @ 60 min", "value": "> 50", "unit": "µM"},
      {"measurement": "IC50", "setting": "[4]; 90 min, read-out: IC50 @ 90 min", "value": "> 50", "unit": "µM"},
      {"measurement": "IC50", "setting": "[5]", "value": "17.6 ± 1.04", "unit": "µM"},
      {"measurement": "Selectivity Index @ 10 min", "setting": "[5]; Cathepsin K vs cathepsin L, 10 min", "value": 114},
      {"measurement": "Selectivity Index @ 30 min", "setting": "[5]; Cathepsin K vs cathepsin L, 30 min", "value": 113},
      {"measurement": "Selectivity Index @ 60 min", "setting": "[5]; Cathepsin K vs cathepsin L, 60 min", "value": 151},
      {"measurement": "Selectivity Index @ 90 min", "setting": "[5]; Cathepsin K vs cathepsin L, 90 min", "value": 137},
      {"measurement": "Selectivity Index", "setting": "[5]; Cathepsin K vs cathepsin L, over 10-90 min", "value": "113-151"},
      {"measurement": "IC50", "setting": "[5]; Cathepsin K, no preincubation, 30 min, read-out: IC50 @ 30 min", "value": "8.46 ± 0.366", "unit": "µM"},
      {"measurement": "IC50", "setting": "[5]; Cathepsin K, no preincubation, 60 min, read-out: IC50 @ 60 min", "value": "8.44 ± 0.14", "unit": "µM"},
      {"measurement": "IC50", "setting": "[5]; Cathepsin K, no preincubation, 90 min, read-out: IC50 @ 90 min", "value": "6.857 ± 0.063", "unit": "µM"},
      {"measurement": "enzymatic activity returned after 100-fold dilution", "setting": "[6]; 1 hour preincubation at 75 nM, 6000 s into the reaction", "value": "approximately 11%"},
      {"measurement": "rate of product formation relative to initial rate", "setting": "[6]; 4 hour preincubated reaction, after 8820 s", "value": 4.7, "unit": "times"},
      {"measurement": "reaction inhibited immediately after addition of substrate", "setting": "[6]; 4 hr preincubated enzyme-inhibitor", "value": 99.8, "unit": "%"},
      {"measurement": "mechanism of inhibition (reversibility)", "setting": "[6]; preincubation/dilution assay", "value": "very slowly reversible inhibitor"}
    ]}
  ]
}
